Experimental data as given in ChEMBL document CHEMBL4706498, “Rosuvastatin based novel 3-substituted isocoumarins / 3-alkylidenephthalides: Ultrasound assisted synthesis and identification of new anticancer agents” (Eur J Med Chem, 2020).
The source made the active and inactive calls. No cut-off for these calls is given here.

Tests used:
PA-1 [1] = assay: Cytotoxicity against human PA-1 cells assessed as inhibition of cell growth at 10 uM measured after 24 hrs by MTT assay (reference value: 0.19%); assay type: functional
HepG2 = assay: Cytotoxicity against human HepG2 cells assessed as inhibition of cell growth at 10 uM measured after 24 hrs by MTT assay (reference value: 0.21%); assay type: functional
[2] = Cytotoxicity against human HEK cells assessed as inhibition of cell growth at 10 uM measured after 24 hrs by MTT assay (reference value: 0.11%); assay type: cell-based
HCT-116 [3] = assay: Cytotoxicity against human HCT-116 cells assessed as inhibition of cell growth at 10 uM measured after 24 hrs by MTT assay (reference value: 0.17%); assay type: functional
[4] = Toxicity in 7 days post fertilize zebrafish embryo assessed as morphological abnormalities or atrioventricular blocks measured after 24 hrs by bright field microscopic analysis; set-up: species or system Danio rerio; conditions: in vivo, dose 1-100 µM
[5] = Toxicity in 7 days post fertilize zebrafish embryo assessed as death at 1 to 100 uM after 24 hrs; set-up: species or system Danio rerio; conditions: in vivo, dose 1-100 µM
[6] = Inhibition of Protein kinase A (unknown origin); set-up: species or system Homo sapiens
[7] = Hepatotoxicity in 4 days post fertilize zebra fish embryo measured 7 days post fertilization at 1 to 100 uM; assay type: toxicity, Danio rerio; conditions: zebrafish, dose 1-100 µM
PANC-1 [8] = assay: Inhibition of human Akt in human PANC-1 cells assessed as cell growth arrest at 50 uM measured after 18 hrs by Western blot assay; assay type: cell-based
PANC-1 [9] = assay: Cytotoxicity against human PANC-1 cells assessed as decrease in cell viability at 50 uM measured after 18 hrs by MTT assay; assay type: functional, cell-based
[10] = target: RAC-beta serine/threonine-protein kinase (Homo sapiens) (UniProt P31751); assay: Binding affinity to Akt2 (unknown origin)
Chain of RAC-beta serine/threonine-protein kinase (Homo sapiens) (P31751 whole entry): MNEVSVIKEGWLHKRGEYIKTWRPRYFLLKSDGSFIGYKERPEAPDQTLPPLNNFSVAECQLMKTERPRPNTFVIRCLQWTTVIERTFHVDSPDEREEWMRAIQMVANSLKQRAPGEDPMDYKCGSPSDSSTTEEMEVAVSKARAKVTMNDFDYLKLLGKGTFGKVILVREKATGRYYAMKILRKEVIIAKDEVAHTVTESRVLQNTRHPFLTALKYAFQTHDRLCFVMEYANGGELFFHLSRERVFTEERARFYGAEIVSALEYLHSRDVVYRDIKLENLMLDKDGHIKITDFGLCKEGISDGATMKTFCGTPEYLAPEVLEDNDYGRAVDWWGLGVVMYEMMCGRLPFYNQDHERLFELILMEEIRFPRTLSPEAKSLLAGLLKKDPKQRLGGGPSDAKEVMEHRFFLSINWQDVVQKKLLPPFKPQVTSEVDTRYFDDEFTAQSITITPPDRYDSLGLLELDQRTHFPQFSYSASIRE

PANC-1 [11] = assay: Inhibition of human Akt in human PANC-1 cells assessed as inhibition of Akt phosphorylation at 50 uM measured after 18 hrs by Western blot assay; assay type: cell-based
[12] = Toxicity in 7 days post fertilize zebrafish embryo assessed as morphological abnormalities at 1 to 100 uM after 24 hrs; set-up: species or system Danio rerio; conditions: in vivo, dose 1-100 µM
[13] = Toxicity in zebra fish embryo measured 5 days post fertilization by measuring teratogenicity at 1 to 100 uM; set-up: species or system Danio rerio; conditions: zebrafish, 120 h, dose 1-100 µM, time 5 day
[14] = target: T1, RAC-alpha serine/threonine-protein kinase (Homo sapiens, UniProt P31749)
T1 sequence (P31749 whole entry): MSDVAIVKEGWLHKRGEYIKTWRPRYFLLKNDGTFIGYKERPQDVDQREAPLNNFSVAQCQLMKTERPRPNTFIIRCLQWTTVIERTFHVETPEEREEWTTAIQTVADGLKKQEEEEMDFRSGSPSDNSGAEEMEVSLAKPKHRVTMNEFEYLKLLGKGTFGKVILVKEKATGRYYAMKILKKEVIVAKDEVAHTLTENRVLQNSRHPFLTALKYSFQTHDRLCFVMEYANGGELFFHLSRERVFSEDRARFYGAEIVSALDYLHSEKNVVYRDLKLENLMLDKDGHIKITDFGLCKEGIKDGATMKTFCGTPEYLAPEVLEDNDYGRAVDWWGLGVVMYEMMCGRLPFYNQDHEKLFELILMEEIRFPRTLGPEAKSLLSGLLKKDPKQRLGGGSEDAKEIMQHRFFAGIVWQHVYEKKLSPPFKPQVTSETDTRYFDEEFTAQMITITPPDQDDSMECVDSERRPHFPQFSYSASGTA
Description: Inhibition of Akt-1 (unknown origin)

[15] = target: T1, RAC-alpha serine/threonine-protein kinase; assay: Binding affinity to Akt1 (unknown origin)
[16] = Microsomal stability in rat liver microsomes assessed as intrinsic clearance; assay type: ADME, Microsome; conditions: read-out: CLH
[17] = Stability of compound assessed as parent compound remaining after 60 mins in rat liver microsomes; assay type: ADME, Microsome; conditions: read-out: Stabilty
[18] = Microsomal stability in rat liver microsomes assessed as half life; assay type: ADME, Microsome
PA-1 [19] = assay: Cytotoxicity against human PA-1 cells assessed as inhibition of cell growth measured after 24 hrs by MTT assay; assay type: functional, cell-based; conditions: PA-1, 24 h
HCT-116 [20] = assay: Cytotoxicity against human HCT-116 cells assessed as inhibition of cell growth measured after 24 hrs by MTT assay; assay type: functional, cell-based; conditions: HCT-116, 24 h

Row | SMILES | inhibition at 10 µM (PA-1 [1]) [%] | inhibition at 10 µM (HepG2) [%] | inhibition at 24 h, 10 µM [2] [%] | inhibition at 10 µM (HCT-116 [3]) [%] | other results
1 | CC(C)c1nc(N(C)S(C)(=O)=O)nc(-c2ccc(F)cc2)c1COC/C=C1\OC(=O)c2cc(Cl)ccc21 | 27 | 21.3 | 2.9 | 24.7 | 
2 | CC(C)c1nc(N(C)S(C)(=O)=O)nc(-c2ccc(F)cc2)c1COC/C=C1\OC(=O)c2ccc(Cl)cc21 | 19.4 | 12.6 | 3.3 | 29.3 | 
3 | COc1ccc2c(=O)oc(COCc3c(-c4ccc(F)cc4)nc(N(C)S(C)(=O)=O)nc3C(C)C)cc2c1 | 40.1 | 39.7 | 3.4 | 41.8 | 
4 | CC(C)c1nc(N(C)S(C)(=O)=O)nc(-c2ccc(F)cc2)c1COCc1cc2ccc(F)cc2c(=O)o1 | 28.9 | 33.2 | 3.1 | 36.9 | 
5 | COc1ccc2c(c1)/C(=C/COCc1c(-c3ccc(F)cc3)nc(N(C)S(C)(=O)=O)nc1C(C)C)OC2=O | 38.3 | 38.6 | 3.8 | 35.1 | 
6 | CC(C)c1nc(N(C)S(C)(=O)=O)nc(-c2ccc(F)cc2)c1COC/C=C1\OC(=O)c2ccc(F)cc21 | 15.1 | 27.5 | 1.7 | 19.8 | 
7 | Cc1ccc2cc(COCc3c(-c4ccc(F)cc4)nc(N(C)S(C)(=O)=O)nc3C(C)C)oc(=O)c2c1 | 28.4 | 24.1 | 3.2 | 26 | 
8 | Cc1ccc2c(c1)C(=O)O/C2=C\COCc1c(-c2ccc(F)cc2)nc(N(C)S(C)(=O)=O)nc1C(C)C | 22.5 | 29.6 | 1.6 | 24.3 | 
9 | CC(C)c1nc(N(C)S(C)(=O)=O)nc(-c2ccc(F)cc2)c1COCc1cc2ccc(Cl)cc2c(=O)o1 | 20.9 | 20.6 | 2.3 | 23.4 | 
10 | CC(C)c1nc(N(C)S(C)(=O)=O)nc(-c2ccc(F)cc2)c1COC/C=C1\OC(=O)c2ccccc21 | 52.3 | 19.3 | 2.1 | 20.2 | 
11 | Cc1cc(Cl)cc2c1/C(=C/COCc1c(-c3ccc(F)cc3)nc(N(C)S(C)(=O)=O)nc1C(C)C)OC2=O | 18.4 | 14.1 | 2.2 | 16 | 
12 | COc1cc2c(cc1OC)/C(=C/COCc1c(-c3ccc(F)cc3)nc(N(C)S(C)(=O)=O)nc1C(C)C)OC2=O | 69.8 | 50.1 | 4.3 | 53.7 | Activity [4]: Non-Toxic; Activity [5]: Non-Toxic; IC50 [6]: > 10 µM; Activity [7]: Non-Toxic; inhibition (PANC-1 [8]): Active; inhibition (PANC-1 [9]): Active; Activity [10]: -9.9 kcal/mol; inhibition (PANC-1 [11]): Active; Activity [12]: Non-Toxic; Activity [13]: Non-Toxic; IC50 [14]: 3.7 µM; Activity [15]: -10.9 kcal/mol
13 | COc1cccc2c1C(=O)c1c(O)c3c(c(O)c1C2=O)C[C@@](O)(C(=O)CO)C[C@@H]3O[C@H]1C[C@H](N)[C@H](O)[C@H](C)O1 [DOXORUBICIN] | 81.3 | 57 |  | 61 | Activity [10]: -8.6 kcal/mol; Activity [15]: -8.8 kcal/mol
14 | COc1ccc2c(c1)C(=O)O/C2=C\COCc1c(-c2ccc(F)cc2)nc(N(C)S(C)(=O)=O)nc1C(C)C | 46.5 | 39.3 | 3.2 | 33.5 | 
15 | CC(C)c1nc(N(C)S(C)(=O)=O)nc(-c2ccc(F)cc2)c1COC/C=C1\OC(=O)c2cccc(Cl)c21 | 26.8 | 22.1 | 3.7 | 25.5 | 
16 | CC(C)c1nc(N(C)S(C)(=O)=O)nc(-c2ccc(F)cc2)c1COCc1cc2ccc(Br)cc2c(=O)o1 | 18.7 | 23.5 | 2.8 | 21.7 | 
17 | Cc1ccc2c(c1C)/C(=C/COCc1c(-c3ccc(F)cc3)nc(N(C)S(C)(=O)=O)nc1C(C)C)OC2=O | 19.9 | 21.6 | 1.9 | 18.9 | 
18 | COc1cc2cc(COCc3c(-c4ccc(F)cc4)nc(N(C)S(C)(=O)=O)nc3C(C)C)oc(=O)c2cc1OC | 68.4 | 48.7 | 4.9 | 65.6 | Activity [4]: Non-Toxic; Activity [5]: Non-Toxic; IC50 [6]: > 10 µM; Activity [7]: Non-Toxic; inhibition (PANC-1 [8]): Active; inhibition (PANC-1 [9]): Active; Activity [10]: -10.6 kcal/mol; inhibition (PANC-1 [11]): Active; microsomal CLint [16]: 26.3 µL/min/mg; Activity [12]: Non-Toxic; Activity [13]: Non-Toxic; IC50 [14]: 4.3 µM; Activity [15]: -11.3 kcal/mol; remaining at 1 h [17]: 47.2%; half-life [18]: 1.83 h; IC50 (PA-1 [19]): 0.00076 µM; IC50 (HCT-116 [20]): 0.00451 µM
19 | COc1cccc2c1/C(=C/COCc1c(-c3ccc(F)cc3)nc(N(C)S(C)(=O)=O)nc1C(C)C)OC2=O | 24.3 | 26.5 | 4.1 | 25.4 | 
20 | CC(C)c1nc(N(C)S(C)(=O)=O)nc(-c2ccc(F)cc2)c1COCc1cc2cc(Cl)ccc2c(=O)o1 | 16.8 | 10.9 | 1.3 | 19.8 | 
21 | CC(C)c1nc(N(C)S(C)(=O)=O)nc(-c2ccc(F)cc2)c1COC/C=C1\OC(=O)c2cc(Br)ccc21 | 21.8 | 20.4 | 1.9 | 13.6 | 
22 | CC(C)c1nc(N(C)S(C)(=O)=O)nc(-c2ccc(F)cc2)c1COC/C=C1\OC(=O)c2cc(F)ccc21 | 18.9 | 26.7 | 3.1 | 18.3 | 
23 | COc1ccc2cc(COCc3c(-c4ccc(F)cc4)nc(N(C)S(C)(=O)=O)nc3C(C)C)oc(=O)c2c1 | 38.3 | 39.1 | 3.7 | 43.2 | 
